Test results reported in US10590106B2, “Certain chemical entities, compositions, and methods” (NeuPharma, Inc., priority 2012, dated 2020).

Legend:
BRAF V600E = BRAF V600E (Homo sapiens (Human), UniProt P15056, V600E); assay: Inhibitory activity against kinase BRAF V600E, Z'-LYTE method (Invitrogen); format: biochemical; details: for inhibition at 1 µM: 1 μM compound, read-out: Inhibition (% inhibition at 1 μM) against BRAF V600E
Method: Inhibitory activities Inhibitory activities of compounds against BRAF, and BRAF V600E were measured by Invitrogen using Z′-LYTE® Method as briefly described in the following. 4× Test compounds are dissolved in 1% DMSO. […] ATP solutions are diluted to a 4×ATP working concentration in Kinase Buffer (50 mM HEPES pH 7.5, 0.01% BRIJ-35, 10 mM MgCl2, 1 mM EGTA). Reaction started by 30-second shaking of mixture consisting of 2.5 μL 4× test compound, […] and 2.5 μL 4×ATP Solution on Bar-coded Corning, low volume NBS, black 384-well plate (Corning Cat. #3676). Then the mixture was incubated for 60-minute at room temperature for the kinase reaction, followed by addition of 5 μL of a 1:1024 dilution of development reagent A and 30-second plate shake. The mixture was then incubated for another 60-minute at room temperature for development reaction. Fluorescence was read by plate reader. IC50 was calculated by plotting the concentration of compound vs the percentage of inhibition in treated wells using GraphPad Prism 5.
Table 2 and 3 show % inhibition at 1 μM of several compounds of the invention against BRAF and BRAF V600E, respectively, using Z′-LYTE® method.
The scale utilized in Table 4 is as follows: +++ less than 100 nM; and ++ greater than 100 nM.

A375 cells = assay: Inhibition of cancer cell growth, MTT or MTS assay, A375; format: cell-based; details: Homo sapiens, A-375; 72 h incubation
Method: (§1) Inhibition of cell growth by compounds was measured using MTT or MTS assay. Tumor cell lines were purchased from ATCC (American Type Culture Collection, Manassas, Va.). All cell lines were maintained in RPMI 1640 (Hyclone) supplemented with 10% fetal bovine serum (FBS, Hyclone), glutamine (2 mM, Hyclone), and antibiotics (penicillin 100 U/mL and streptomycin 50 μg/mL) at 37° C. in a humidified atmosphere of 5% CO2 in air. Taxol (as a positive control, Sigma) and compounds were dissolved in DMSO (Sigma), and the final concentration of DMSO in the medium was 1%. Tumor cells were plated in 96-well plates at densities of about 2000 (A375) or 4000 (A549 and Colo205) cells/well of a 96-well plate and allowed to adhere/grow for 24 h. They were then treated with various concentrations of drug and incubated for 72 h. For MTT method, medium was then removed by inverting and tapping the plates. 100 μL of MTT (0.5 mg/ml) was added to each well followed by an incubated at 37° C. for 4 h. MTT was then removed and 200 μL of DMSO was added to each well, and the ODs at 570 nm were measured after a 5 second shaking cycle in a 96-well spectrophotometer. For MTS method, 20 μL MTS (CellTiter 96 Aqueous One Solution, Promega) was added to each well followed by an incubated at 37° C. for 2-4 h, solutions were then directly put in a 96-well spectrophotometer, and the ODs at 490 nm were measured.
(§2) All concentrations of compounds were tested in triplicate and controls were averaged over 4 wells. IC50 was calculated by plotting the concentration of compound vs the percentage of inhibition in treated wells using GraphPad Prism 5. […] The scale utilized in Tables […] is as follows: +++ less than 1000 nM; ++ between 1000 nM and 5000 nM; and + greater than 5000 nM. The scale utilized in Table 8 is as follows: +++ less than 2000 nM; ++ between 2000 nM and 5000 nM; and + greater than 5000 nM.

KDR (VEGFR2) = KDR (VEGFR2) (Homo sapiens (Human), UniProt P35968); assay: Inhibitory activity against kinase KDR, Z'-LYTE method (Invitrogen); format: biochemical; details: for inhibition at 1 µM: 1 μM compound, read-out: Inhibition (% inhibition at 1 μM) against KDR
Method: Inhibitory activities of compounds against KDR (VEGFR2) were also measured by Invitrogen using Z′-LYTE® Method as described above with the following modification. The 2× KDR (VEGFR2)/Tyr 01 mixture is prepared in 50 mM HEPES pH 7.5, 0.01% BRIJ-35, 10 mM MgCl2, 1 mM EGTA. The final 10 μL Kinase Reaction consists of 0.5-11.7 ng KDR (VEGFR2) and 2 μM Tyr 01 in 50 mM HEPES pH 7.5, 0.01% BRIJ-35, 10 mM MgCl2, 1 mM EGTA. After the 1 hour Kinase Reaction incubation, 5 μL of a 1:256 dilution of Development Reagent B is added.
The scale utilized in Table 5 is as follows: +++ less than 100 nM; and ++ greater than 100 nM

A549 cells = assay: Inhibition of cancer cell growth, MTT or MTS assay, A549; format: cell-based; details: Homo sapiens, 72 h incubation
Method: as §1, §2

Sequence of KDR (VEGFR2) (P35968 20-1356): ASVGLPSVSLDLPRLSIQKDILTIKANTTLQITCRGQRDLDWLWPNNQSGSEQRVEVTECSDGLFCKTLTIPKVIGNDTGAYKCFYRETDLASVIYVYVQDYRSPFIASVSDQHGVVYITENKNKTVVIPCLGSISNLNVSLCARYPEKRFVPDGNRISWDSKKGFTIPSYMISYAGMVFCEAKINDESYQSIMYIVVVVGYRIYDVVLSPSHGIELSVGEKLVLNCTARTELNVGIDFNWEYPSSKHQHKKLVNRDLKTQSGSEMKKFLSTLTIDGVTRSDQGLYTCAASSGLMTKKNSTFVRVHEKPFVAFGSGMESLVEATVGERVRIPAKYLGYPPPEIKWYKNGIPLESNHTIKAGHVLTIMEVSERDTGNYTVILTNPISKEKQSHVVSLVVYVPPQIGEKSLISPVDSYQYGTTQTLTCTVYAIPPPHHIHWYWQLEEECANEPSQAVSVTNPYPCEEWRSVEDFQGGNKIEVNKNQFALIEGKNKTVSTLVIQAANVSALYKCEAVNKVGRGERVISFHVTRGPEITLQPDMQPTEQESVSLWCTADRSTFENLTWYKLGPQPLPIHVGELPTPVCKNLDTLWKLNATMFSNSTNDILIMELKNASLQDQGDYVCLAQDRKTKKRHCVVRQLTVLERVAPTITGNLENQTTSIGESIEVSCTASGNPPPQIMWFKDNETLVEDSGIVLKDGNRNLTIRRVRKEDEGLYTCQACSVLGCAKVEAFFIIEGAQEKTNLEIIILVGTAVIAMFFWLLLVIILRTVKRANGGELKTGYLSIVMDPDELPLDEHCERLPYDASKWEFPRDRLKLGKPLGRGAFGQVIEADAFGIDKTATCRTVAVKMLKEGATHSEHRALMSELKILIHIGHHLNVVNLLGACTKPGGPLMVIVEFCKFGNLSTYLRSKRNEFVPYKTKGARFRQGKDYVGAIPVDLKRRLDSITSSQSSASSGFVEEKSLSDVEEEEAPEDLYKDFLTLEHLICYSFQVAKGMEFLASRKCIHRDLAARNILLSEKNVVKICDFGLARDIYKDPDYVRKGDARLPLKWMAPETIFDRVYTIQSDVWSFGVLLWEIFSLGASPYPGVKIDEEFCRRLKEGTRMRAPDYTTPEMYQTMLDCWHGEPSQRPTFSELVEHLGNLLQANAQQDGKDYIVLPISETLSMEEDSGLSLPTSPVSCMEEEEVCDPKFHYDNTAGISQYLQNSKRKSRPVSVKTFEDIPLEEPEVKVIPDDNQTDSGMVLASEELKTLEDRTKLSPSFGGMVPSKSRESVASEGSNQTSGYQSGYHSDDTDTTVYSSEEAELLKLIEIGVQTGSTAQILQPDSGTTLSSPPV
Sequence of BRAF V600E (P15056 whole entry V600E): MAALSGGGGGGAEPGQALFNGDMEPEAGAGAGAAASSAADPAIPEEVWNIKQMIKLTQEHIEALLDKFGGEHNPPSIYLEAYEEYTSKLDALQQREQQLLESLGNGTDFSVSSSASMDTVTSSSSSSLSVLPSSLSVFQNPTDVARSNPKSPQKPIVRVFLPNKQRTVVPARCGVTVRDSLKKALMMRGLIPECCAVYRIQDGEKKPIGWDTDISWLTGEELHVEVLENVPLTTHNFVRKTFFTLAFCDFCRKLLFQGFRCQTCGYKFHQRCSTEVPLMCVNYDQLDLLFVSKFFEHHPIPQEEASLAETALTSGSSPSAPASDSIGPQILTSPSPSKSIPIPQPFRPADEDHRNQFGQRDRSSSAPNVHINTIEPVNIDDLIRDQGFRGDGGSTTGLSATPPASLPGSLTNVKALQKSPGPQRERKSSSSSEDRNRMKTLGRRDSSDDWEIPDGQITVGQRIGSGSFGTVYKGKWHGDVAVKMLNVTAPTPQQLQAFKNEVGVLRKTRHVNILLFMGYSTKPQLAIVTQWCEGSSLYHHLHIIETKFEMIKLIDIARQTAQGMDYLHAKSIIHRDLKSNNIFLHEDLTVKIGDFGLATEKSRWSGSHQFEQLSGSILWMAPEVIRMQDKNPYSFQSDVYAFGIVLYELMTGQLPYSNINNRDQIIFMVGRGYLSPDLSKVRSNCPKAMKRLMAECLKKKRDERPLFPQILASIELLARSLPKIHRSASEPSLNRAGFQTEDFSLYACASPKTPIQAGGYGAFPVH

Row | inhibition at 1 µM (BRAF V600E) | inhibition at 1 µM (KDR (VEGFR2)) | IC50 (A549 cells) | SMILES | further results
1 | 70 to 89% |  |  | O=C(Nc1ccc(Cl)cc1)Nc1ccc(Oc2ccc3nccnc3c2)c(F)c1 [Compound C102, 1-(4-chlorophenyl)-3-(3-fluoro-4-(quinoxalin-6-yloxy)phenyl)urea] | 
2 | 70 to 89% |  |  | O=C(Nc1ccc(F)c(Oc2ccc3nccnc3c2)c1)c1cccc(F)c1 [Compound C017, 3-fluoro-N-(4-fluoro-3-(quinoxalin-6-yloxy)phenyl)benzamide] | IC50 (A375 cells): > 5 µM
3 | > 89% | 70 to 89% | 2 to 5 µM | O=C(Nc1ccc(Cl)c(F)c1)Nc1ccc(F)c(Oc2ccc3ncc(N4CCOCC4)nc3c2)c1 [Compound C058, 1-(4-chloro-3-fluorophenyl)-3-(4-fluoro-3-((3-morpholinoquinoxalin-6-yl)oxy)phenyl)urea] | 
4 | > 89% | 70 to 89% |  | O=C(Nc1ccc(Cl)cc1)Nc1ccc(F)c(Oc2ccc3ncc(N4CCOCC4)nc3c2)c1 [Compound C057, 1-(4-chlorophenyl)-3-(4-fluoro-3-((3-morpholinoquinoxalin-6-yl)oxy)phenyl)urea] | 
5 | 70 to 89% |  |  | O=C(Nc1ccc(Oc2ccc3nccnc3c2)cc1)c1cccc(C(F)(F)F)c1 [Compound C078, N-(4-(quinoxalin-6-yloxy)phenyl)-3-(trifluoromethyl)benzamide] | IC50 (A375 cells): > 5 µM
6 |  |  | > 5 µM | O=C(Nc1ccc(Oc2ccc3ncc(O)nc3c2)cc1)Nc1ccc(Cl)c(C(F)(F)F)c1 [Compound C103, 1-(4-chloro-3-(trifluoromethyl)phenyl)-3-(4-((3-hydroxyquinoxalin-6-yl)oxy)phenyl)urea] | 
7 | 70 to 89% | < 70% | > 5 µM | O=C(Nc1cc(F)cc(F)c1)Nc1cccc(Oc2ccc3ncc(N4CCOCC4)nc3c2)c1 [Compound C045, 1-(3,5-difluorophenyl)-3-(3-((3-morpholinoquinoxalin-6-yl)oxy)phenyl)urea] | 
8 |  |  |  | O=C(Nc1cccc(Oc2ccc3nccnc3c2)c1)NC1CC1 [Compound C072, 1-cyclopropyl-3-(3-(quinoxalin-6-yloxy)phenyl)urea] | IC50 (A375 cells): > 5 µM
9 |  |  |  | COc1ccc(NC(=O)Nc2cccc(Oc3ccc4nccnc4c3)c2)cc1 [Compound C069, 1-(4-methoxyphenyl)-3-(3-(quinoxalin-6-yloxy)phenyl)urea] | IC50 (BRAF V600E): < 0.1 µM; IC50 (KDR (VEGFR2)): < 0.1 µM
10 | > 89% | 70 to 89% | > 5 µM | O=C(Nc1cccc(F)c1)Nc1cccc(Oc2ccc3ncc(N4CCOCC4)nc3c2)c1 [Compound C042, 1-(3-fluorophenyl)-3-(3-((3-morpholinoquinoxalin-6-yl)oxy)phenyl)urea] | 
11 | > 89% | 70 to 89% | > 5 µM | O=C(Nc1cccc(Cl)c1)Nc1ccc(F)c(Oc2ccc3ncc(N4CCOCC4)nc3c2)c1 [Compound C055, 1-(3-chlorophenyl)-3-(4-fluoro-3-((3-morpholinoquinoxalin-6-yl)oxy)phenyl)urea] | 
12 | > 89% | 70 to 89% | > 5 µM | O=C(Nc1cccc(F)c1)Nc1cccc(Oc2ccc3ncc(N4CCNCC4)nc3c2)c1 [Compound C037, 1-(3-fluorophenyl)-3-(3-((3-(piperazin-1-yl)quinoxalin-6-yl)oxy)phenyl)urea] | 
13 |  |  |  | CCCS(=O)(=O)Nc1cc(F)cc(Oc2ccc3ncc(N4CCOCC4)nc3c2)c1 [Compound C030, N-(3-fluoro-5-((3-morpholinoquinoxalin-6-yl)oxy)phenyl)propane-1-sulfonamide] | IC50 (A375 cells): > 5 µM
14 | 70 to 89% |  |  | O=C(Nc1ccc(Cl)cc1)Nc1ccc(Oc2ccc3ncc(N4CCOCC4)nc3c2)cc1 [Compound C085, 1-(4-chlorophenyl)-3-(4-((3-morpholinoquinoxalin-6-yl)oxy)phenyl)urea] | 
15 | > 89% | 70 to 89% | > 5 µM | O=C(Nc1ccc(F)c(Cl)c1)Nc1ccc(F)c(Oc2ccc3ncc(N4CCOCC4)nc3c2)c1 [Compound C056, 1-(3-chloro-4-fluorophenyl)-3-(4-fluoro-3-((3-morpholinoquinoxalin-6-yl)oxy)phenyl)urea] | 
